Compound: NC(=O)c1ccc(N(C(N)=O)c2c(F)cccc2F)nc1-c1ccc(F)cc1F [VX-702] + O=C(CCCCCCC(=O)Nc1ccccc1)NO [Vorinostat] (partner 1 µM)
Assay: relative viability (nuclei count vs DMSO), 5 days (fraction); higher = more cells survive
Conditions: first compound 0.02 µM
Summary of the method: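 Medians of duplicate plates are given as relative viability. That measure is the nuclei count in treated wells divided by the count in vehicle wells. Counts were taken on 4× images of lung cancer cell lines in 1536-well plates, 5 days after pin-tool dosing the day after seeding with one drug alone or a fixed anchor-drug dose plus five library-drug doses (not always all listed) in √10 steps.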

Row | Cell Line | relative viability
1 | ABC-1 | 1.46
2 | CAL-12T | 0.688
3 | NCI-H1944 | 0.625
4 | NCI-H2085 | 0.861
5 | IA-LM | 0.937
6 | NCI-H2228 | 0.536
7 | NCI-H441 | 0.876
8 | NCI-H522 | 1.06
9 | EMC-BAC-2 | 0.477
10 | NCI-H2170 | 0.967
11 | UMC-11 | 0.339
12 | NCI-H650 | 0.607
13 | LCLC-103H | 0.813
14 | NCI-H596 | 0.636
15 | HCC-827 | 0.879
16 | COR-L 105 | 0.734
17 | NCI-H2126 | 0.76
18 | NCI-H647 | 0.563
19 | LOU-NH91 | 0.957
20 | HCC-78 | 0.393

Row | Cell Line | relative viability
21 | HCC-44 | 1.17
22 | NCI-H1651 | 0.536
23 | NCI-H1755 | 0.929
24 | HOP-62 | 0.869
25 | PC-14 | 0.806
26 | NCI-H1650 | 0.479
27 | ChaGo-K-1 | 0.84
28 | A-427 | 0.897
29 | NCI-H1355 | 0.694
30 | NCI-H1648 | 0.242
31 | HCC-15 | 0.813
32 | LU99A | 0.412
33 | NCI-H1793 | 0.669
34 | NCI-H2342 | 0.717
35 | NCI-H727 | 1.25
36 | LK-2 | 0.258
37 | NCI-H358 | 0.675
38 | NCI-H1395 | 0.701
39 | SK-MES-1 | 1.09

Same assay, conditions: first compound 0.2 µM

Row | Cell Line | relative viability
40 | ABC-1 | 0.922
41 | CAL-12T | 0.744
42 | NCI-H1944 | 0.557
43 | NCI-H2085 | 0.802
44 | IA-LM | 0.936
45 | NCI-H2228 | 0.631
46 | NCI-H441 | 0.616
47 | NCI-H522 | 0.899
48 | EMC-BAC-2 | 0.427
49 | NCI-H2170 | 0.734
50 | UMC-11 | 0.293
51 | NCI-H650 | 0.309
52 | LCLC-103H | 0.799
53 | NCI-H596 | 0.439
54 | HCC-827 | 0.799
55 | COR-L 105 | 0.805
56 | NCI-H2126 | 0.741
57 | NCI-H647 | 0.499
58 | LOU-NH91 | 0.845

Row | Cell Line | relative viability
59 | HCC-78 | 0.486
60 | HCC-44 | 1.09
61 | NCI-H1651 | 0.558
62 | NCI-H1755 | 0.748
63 | HOP-62 | 0.697
64 | PC-14 | 0.774
65 | NCI-H1650 | 0.624
66 | ChaGo-K-1 | 0.7
67 | A-427 | 0.869
68 | NCI-H1355 | 0.605
69 | NCI-H1648 | 0.271
70 | HCC-15 | 0.803
71 | LU99A | 0.452
72 | NCI-H2342 | 0.956
73 | NCI-H727 | 1.28
74 | LK-2 | 0.275
75 | NCI-H358 | 0.601
76 | NCI-H1395 | 0.686
77 | SK-MES-1 | 1.08

Same assay, conditions: first compound 0.6325 µM

Row | Cell Line | relative viability
78 | ABC-1 | 1.17
79 | CAL-12T | 0.725
80 | NCI-H1944 | 0.558
81 | NCI-H2085 | 0.855
82 | IA-LM | 0.853
83 | NCI-H2228 | 0.467
84 | NCI-H441 | 0.637
85 | NCI-H522 | 1.03
86 | EMC-BAC-2 | 0.496
87 | NCI-H2170 | 0.842
88 | UMC-11 | 0.353
89 | NCI-H650 | 0.494
90 | LCLC-103H | 0.835
91 | NCI-H596 | 0.637
92 | HCC-827 | 0.885
93 | COR-L 105 | 0.795
94 | NCI-H2126 | 0.754
95 | NCI-H647 | 0.304
96 | LOU-NH91 | 0.895
97 | HCC-78 | 0.427

Row | Cell Line | relative viability
98 | HCC-44 | 1.19
99 | NCI-H1651 | 0.53
100 | NCI-H1755 | 0.731
101 | HOP-62 | 0.744
102 | PC-14 | 0.74
103 | NCI-H1650 | 0.776
104 | ChaGo-K-1 | 0.79
105 | A-427 | 0.895
106 | NCI-H1355 | 0.689
107 | NCI-H1648 | 0.397
108 | HCC-15 | 0.854
109 | LU99A | 0.49
110 | NCI-H1793 | 0.757
111 | NCI-H2342 | 0.832
112 | NCI-H727 | 1.18
113 | LK-2 | 0.283
114 | NCI-H358 | 0.669
115 | NCI-H1395 | 0.683
116 | SK-MES-1 | 1.06

Same assay, conditions: first compound 2 µM

Row | Cell Line | relative viability
117 | ABC-1 | 1.41
118 | CAL-12T | 1.04
119 | NCI-H1944 | 0.414
120 | NCI-H2085 | 0.848
121 | IA-LM | 0.878
122 | NCI-H2228 | 0.896
123 | NCI-H441 | 0.76
124 | NCI-H522 | 1.11
125 | EMC-BAC-2 | 0.427
126 | NCI-H2170 | 0.874
127 | UMC-11 | 0.376
128 | NCI-H650 | 0.609
129 | LCLC-103H | 0.839
130 | NCI-H596 | 0.581
131 | HCC-827 | 0.827
132 | COR-L 105 | 0.855
133 | NCI-H2126 | 0.632
134 | NCI-H647 | 0.897
135 | LOU-NH91 | 0.857
136 | HCC-78 | 0.543

Row | Cell Line | relative viability
137 | HCC-44 | 1.16
138 | NCI-H1651 | 0.586
139 | NCI-H1755 | 0.877
140 | HOP-62 | 0.817
141 | PC-14 | 0.531
142 | NCI-H1650 | 0.583
143 | ChaGo-K-1 | 0.795
144 | A-427 | 1.01
145 | NCI-H1355 | 0.821
146 | NCI-H1648 | 0.364
147 | HCC-15 | 0.858
148 | LU99A | 0.485
149 | NCI-H1793 | 0.591
150 | NCI-H2342 | 0.867
151 | NCI-H727 | 1.39
152 | LK-2 | 0.385
153 | NCI-H358 | 0.972
154 | NCI-H1395 | 0.884
155 | SK-MES-1 | 1.11
